Experiment [1] concerns Red Palm Weevil larvae. Kind of experiment: Growth indices bioassay (nutritional indices ECI, ECD, AD) on coumarin-incorporated artificial diet. In kind it is in vivo, Rhynchophorus ferrugineus. Conditions: 72 hours post exposure; for inhibition at 1000 ppm: Rhynchophorus ferrugineus, feed or water, 72 h, 1000 ppm in diet. On the procedure: Impact of different doses of coumarin on the growth and development of different larval instars of red palm weevil was evaluated by growth indices bioassays. All the solutions of coumarin were prepared by dissolving in 0.05% acetone. The ingredients of artificial diet (wheat flour @ 45 g/L, corn flour @ 45 g/L, Yeast @ 45 g/L, Agar @ 17.5 g/L, Sorbic acid @ 1.6 g/L, L-Ascorbic Acid @ 4 g/L, Pharmaton (2 capsules/L), Tetracycline @ 500 mg/L) were dissolved in 1 L of coumarin solution with strength 200 mg/L, 400 mg/L, 600 mg/L, 800 mg/L and 1000 mg/L of coumarin, separately. Newly moulted 4th, 8th and 12th instar Red Palm Weevil larvae were allowed to feed on each diet separately in perforated plastic bowls. In case of control treatment, 0.05% acetone was used to prepare the diet. Twenty larvae were used to compile one replicate. Five replicates were prepared likewise. The fresh diet was daily provided to the larvae. The experimental units were incubated at 30±1° C. and 75%±5% relative humidity. Initial and final weight of the larvae and the frass produced during 72 hours post exposure was also measured. These measurements were used to determine the impact of coumarin on the nutritional indices including: Approximate Digestibility [AD=([…]−frass weight)/food ingested×100], Efficacy of conversion of digested food [ECD=weight gained by the larva/(food ingested−dry weight of frass)×100] and Efficacy of conversion of ingested food [ECI=100×dry weight gained by the larva/dry weight of food consumed].
For growth indices, measurements were made 72 hours post-exposure on dry matter basis. Larvae, frass and remaining food after 72 h were dried at 60° C. until constant weight. Growth indices data were analyzed by one way analysis of variance (ANOVA). Means were compared by Fisher's Least Significant Difference (LSD) test.

Experiment [2] has as its system Red Palm Weevil larvae. In words: Insecticidal potential of coumarin at different doses incorporated in artificial diet (mortality bioassay). In kind it is in vivo, Rhynchophorus ferrugineus. Conditions: for EC50 / LD50: artificial diet, after three days. On the procedure: Insecticidal potential of coumarin at different dose concentrations (200 ppm, 400 ppm, 600 ppm, 800 ppm and 1000 ppm) was evaluated against 4th, 8th and 12th instar Red Palm Weevil larvae. The above mentioned concentrations of coumarin were prepared by dissolving coumarin in 0.05% acetone. The ingredients of artificial diet (wheat flour @ 45 g/L, corn flour @ 45 g/L, Yeast @ 45 g/L, Agar @ 17.5 g/L, Sorbic acid @ 1.6 g/L, L-Ascorbic Acid @ 4 g/L, Pharmaton (2 capsules/L), Tetracycline @ 500 mg/L) were dissolved in 1 L of coumarin solution with strength 200 mg/L, 400 mg/L, 600 mg/L, 800 mg/L and 1000 mg/L, separately. The newly moulted 4th, 8th and 12th instar Red Palm Weevil larvae were allowed to feed on each diet separately in perforated plastic bowls. In case of control treatment, 0.05% acetone was used to prepare the diet. Twenty larvae were used to compile one replicate. Five replicates were prepared likewise. The fresh diet was provided daily to the larvae. The experimental units were incubated at 30±1° C. and 75%±5% relative humidity. Abbot formula was used to correct the control mortality (Abbott, 1925). Efficacy of coumarin was determined at each dose to calculate LD50 values.

Setting [3] is: 4th, 8th and 12th instar larvae, 200-1000 ppm in diet.

Like-named read-outs stand apart in the source and are kept apart here.

As for `O=c1ccc2ccccc2o1` [coumarin], in the experiment on Red Palm Weevil larvae [1] (setting [3]), the “approximate digestibility (AD)” value is listed as “significantly increased”. For the same compound, the inhibition (in general, the relative decrease from the control value, in per cent) at 1000 ppm with Red Palm Weevil larvae [1] (4th instar larvae, read-out: ECD (efficacy of conversion of digested food) inhibition compared to control) came out at 96.9%; in the experiment with Red Palm Weevil larvae [1] (4th instar larvae, read-out: ECI (efficacy of conversion of ingested food) inhibition compared to control) it was 95.6%; in the experiment with Red Palm Weevil larvae [1] (8th instar larvae, read-out: ECD (efficacy of conversion of digested food) inhibition compared to control), 89%; with Red Palm Weevil larvae [1] (8th instar larvae, read-out: ECI (efficacy of conversion of ingested food) inhibition compared to control) it was 84%; in the experiment with Red Palm Weevil larvae [1] (12th instar larvae, read-out: ECD (efficacy of conversion of digested food) inhibition compared to control), 78.5%; in the experiment on Red Palm Weevil larvae [1] (12th instar larvae, read-out: ECI (efficacy of conversion of ingested food) inhibition compared to control), 69.4%. The figures for the EC50 in the experiment with Red Palm Weevil larvae [2] (4th instar larvae), with Red Palm Weevil larvae [2] (8th instar larvae) and with Red Palm Weevil larvae [2] (12th instar larvae) were 293.77 ppm, 438.32 ppm and 559.77 ppm, respectively. The results for the LD50 with Red Palm Weevil larvae [2] (4th instar larvae), in the experiment on Red Palm Weevil larvae [2] (8th instar larvae) and in the experiment on Red Palm Weevil larvae [2] (12th instar larvae) were 404.55 ppm, 509.37 ppm and 708.24 ppm, respectively. For the same compound, the mortality versus dose result in the experiment with Red Palm Weevil larvae [2] (setting [3]) is “directly proportional”.

The values are drawn from patent US9596851B1, “Method for controlling growth of red palm weevil” (priority 2015, dated 2017).
